Results as given in US6979690B2, “Oxo or oxy-pyridine compounds as 5-HT4 receptor modulators” (Pfizer Inc., priority 2002, dated 2005).

melting point [°C]	Structure (SMILES)
175	CC(C)CN1CCC(CCC(=O)c2cc(Cl)c(N)[nH]c2=O)CC1 [Example 15, 6-Amino-5-chloro-3-[3-(1-isobutyl-4-piperidinyl)propanoyl]-2(1H)-pyridinone]
73.2	COc1nc(N)ccc1C(=O)CCC1CCN(CC2CCCCC2)CC1 [Example 16, 1-(6-Amino-2-methoxy-3-pyridinyl)-3-[1-(cyclohexylmethyl)-4-piperidinyl]-1-propanone]
164.3	Nc1[nH]c(=O)c(C(=O)CCC2CCN(CC3CCCCC3)CC2)cc1Cl [Example 106, 6-Amino-5-chloro-3-{3-[1-(cyclohexylmethyl)piperidine-4-yl]propanoyl}pyridin-2(1H)-one]
134	COc1nc(N)c(Cl)cc1C(=O)CCC1CCN(CC(O)C(C)(C)C)CC1 (stereo not drawn) [Example 107, 1-(6-Amino-5-chloro-2-methoxypyridin-3-yl)-3-[1-(2-hydroxy-3,3-dimethylbutyl)piperidine-4-yl]propan-1-one]
211.3	CC(C)(C)C(O)CN1CCC(CCC(=O)c2cc(Cl)c(N)[nH]c2=O)CC1 (stereo not drawn) [Example 108, 6-Amino-5-chloro-3-{3-[1-(2-hydroxy-3,3-dimethylbutyl)-piperidine-4-yl]propanoyl}pyridin-2(1H)-one]
108.1	COc1nc(N)c(Cl)cc1C(=O)CCC1CCN(CC(C)(C)O)CC1 [Example 109, 1-(6-Amino-5-chloro-2-methoxypyridin-3-yl)-3-[1-(2-hydroxy-2-methylpropyl)piperidine-4-yl]propan-1-one]

The remaining lines, values behind:

Structure (SMILES)	melting point [°C]
COc1nc(N)c(Cl)cc1C(=O)CCC1CCNCC1.Cl	230.6
CCN1CCC(CNC(=O)c2cc(Cl)c(N)[nH]c2=O)CC1 [Example 1, 6-Amino-5-chloro-N-[(1-ethyl-4-piperidinyl)methyl]-2-oxo-1,2-dihydro-3-pyridinecarboxamide]	136 to 140
CC(C)CCN1CCC(CNC(=O)c2cc(Cl)c(N)[nH]c2=O)CC1 [Example 5, 6-Amino-5-chloro-N-{[1-(3-methylbutyl)-4-piperidinyl]methyl}-2-oxo-1,2-dihydro-3-pyridinecarboxamide]	131 to 135
CC(C)CN1CCC(CNC(=O)c2cc(Cl)c(N)[nH]c2=O)CC1 [Example 6, 6-Amino-5-chloro-N-{[1-(2-methylpropyl)-4-piperidinyl]methyl}-2-oxo-1,2-dihydro-3-pyridinecarboxamide]	128 to 133
CCOC(=O)CN1CCC(CNC(=O)c2cc(Cl)c(N)[nH]c2=O)CC1 [Example 7, Ethyl [4-({[(6-amino-5-chloro-2-oxo-1,2-dihydro-3-pyridinyl)carbonyl]amino}methyl)-1-piperidinyl]acetate]	162 to 164
CC(C)(C)OC(=O)CN1CCC(CNC(=O)c2cc(Cl)c(N)[nH]c2=O)CC1 [Example 8, 1,1-Dimethylethyl [4-({[(6-amino-5-chloro-2-oxo-1,2-dihydro-3-pyridinyl)carbonyl]amino}methyl)-1-piperidinyl]acetate]	200 to 203
CCCCN1CCC(CCC(=O)c2cc(Cl)c(N)nc2OC)CC1 [Example 10, 1-[6-Amino-5-chloro-2-(methoxy)-3-pyridinyl]-3-(1-butyl-4-piperidinyl)-1-propanone]	86 to 87
CCCCN1CCC(CCC(=O)c2ccc(N)nc2OC)CC1 [Example 12, 1-(6-Amino-2-methoxy-3-pyridinyl)-3-(1-butyl-4-piperidinyl)-1-propanone]	85 to 89
COc1nc(N)c(Cl)cc1C(=O)CCC1CCN(CC(C)C)CC1 [Example 14, 1-(6-Amino-5-chloro-2-methoxy-3-pyridinyl)-3-(1-isobutyl-4-piperidinyl)-1-propanone]	128
